A word on the stoichiometry N: it is a count of units in the complex or per binding partner.

One assay deals with T1, TvGDHII (Trichoderma virens, UniProt G9N1C2).
T1 construct: gene TRIVIDRAFT_46709; monomer; ~65 kDa deglycosylated; non-covalent FAD
As to the kind of experiment: spectrophotometric steady-state kinetics, reduction of […],4-benzoquinone ([…] nm). It counts as biochemical. The following applies: 0.5 mM 1,4-benzoquinone fixed, pH 6.5, 30 °C.

The next assay has as its target T2, RsGDHIII (Rhizoctonia solani, UniProt A0A0B7G104).
T2 construct: gene RSOLAG1IB_10481; monomer; non-covalent FAD
T2 sequence (A0A0B7G104 20-601): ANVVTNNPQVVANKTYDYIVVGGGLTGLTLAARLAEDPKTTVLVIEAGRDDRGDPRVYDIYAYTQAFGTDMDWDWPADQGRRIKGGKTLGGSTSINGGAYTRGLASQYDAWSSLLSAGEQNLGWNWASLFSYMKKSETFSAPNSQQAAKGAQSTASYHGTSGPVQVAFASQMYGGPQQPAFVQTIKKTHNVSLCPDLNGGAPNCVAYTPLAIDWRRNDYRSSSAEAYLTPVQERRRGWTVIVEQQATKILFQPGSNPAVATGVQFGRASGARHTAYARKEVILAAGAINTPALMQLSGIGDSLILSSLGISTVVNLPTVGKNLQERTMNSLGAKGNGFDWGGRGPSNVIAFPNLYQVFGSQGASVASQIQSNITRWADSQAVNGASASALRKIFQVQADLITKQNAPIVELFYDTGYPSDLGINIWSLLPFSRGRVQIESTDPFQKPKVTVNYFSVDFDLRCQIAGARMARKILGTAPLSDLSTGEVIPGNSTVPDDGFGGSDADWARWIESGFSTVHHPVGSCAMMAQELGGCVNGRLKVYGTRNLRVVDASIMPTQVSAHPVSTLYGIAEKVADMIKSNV
The description is as above. The class given is biochemical. The following applies: 0.5 mM 1,4-benzoquinone fixed, pH 6.5, 30 °C.

Assay [1] has as its target Aureobasidium subglaciale glucose oxidase (AsGOxII) (Aureobasidium subglaciale). As to the kind of experiment: SEC-MALS; HPLC-SEC-MALS of the purified, native glycosylated enzyme; Superdex 200 10/300 GL, PBS pH 7.4 with 200 mM NaCl, 0.75 mL/min, 25 °C; 80 μg of protein loaded per run; oligomeric state judged against the mass of the deglycosylated subunit by SDS-PAGE.

T1 sequence (G9N1C2 entry or part of it): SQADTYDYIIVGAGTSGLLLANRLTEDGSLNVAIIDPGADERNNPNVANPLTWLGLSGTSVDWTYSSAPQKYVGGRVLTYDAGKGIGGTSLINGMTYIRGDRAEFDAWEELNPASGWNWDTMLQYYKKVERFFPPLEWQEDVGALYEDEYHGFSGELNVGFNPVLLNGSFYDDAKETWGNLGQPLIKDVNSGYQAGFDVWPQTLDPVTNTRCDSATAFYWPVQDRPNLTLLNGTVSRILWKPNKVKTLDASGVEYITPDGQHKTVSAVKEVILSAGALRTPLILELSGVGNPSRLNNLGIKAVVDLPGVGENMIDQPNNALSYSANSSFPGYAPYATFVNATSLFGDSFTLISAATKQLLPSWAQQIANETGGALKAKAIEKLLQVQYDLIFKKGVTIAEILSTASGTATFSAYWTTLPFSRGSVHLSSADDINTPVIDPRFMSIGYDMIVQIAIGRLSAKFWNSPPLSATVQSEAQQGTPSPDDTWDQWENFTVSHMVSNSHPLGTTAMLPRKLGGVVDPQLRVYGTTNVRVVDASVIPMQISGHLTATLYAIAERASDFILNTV

As for `OC[C@H]1OC(O)[C@H](O)[C@@H](O)[C@H]1O` (stereo partly drawn) [D-galactose], the “apparent Km” value at TvGDHII was found to be 42.6 ± 2.4 mM. With `OC[C@H]1O[C@H](O[C@H]2[C@H](O)[C@@H](O)C(O)O[C@@H]2CO)[C@H](O)[C@@H](O)[C@@H]1O` (stereo partly drawn) [maltose], the “apparent Km” value on RsGDHIII was 159.6 ± 9.4 mM.

As for “Aureobasidium subglaciale glucose oxidase (AsGOxII) (enzyme)”, the stoichiometry N in assay [1] worked out at 2.

Values taken from paper PMC8537048, “Characterization of Fungal FAD-Dependent AA3_2 Glucose Oxidoreductases from Hitherto Unexplored Phylogenetic Clades” (Journal of Fungi, 2021).
